# According to ChEMBL document CHEMBL1201861, “Genomics of Drug Sensitity in Cancer screening data, Wellcome Trust Sanger Institute”:
# Experiments:
# [1] = test system: SU-DHL-1; assay: SANGER: Inhibition of human SU-DHL-1 cell growth in a cell viability assay.; format: functional, cell-based
# [2] = test system: RT-112; assay: cells; format: functional, cell-based; conditions: Homo sapiens
# Description: SANGER: Inhibition of human RT-112 cell growth in a cell viability assay.
# [3] = test system: NCI-H2030; assay: cells; format: functional, cell-based; conditions: Homo sapiens;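 note: growth inhibition of human NCI-H2030 cells, read out by a cell viability assay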
# Description: SANGER: Inhibition of human NCI-H2030 cell growth in a cell viability assay.
# [4] = test system: NCI-H1522; assay: cells; format: functional, cell-based; conditions: Homo sapiens;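 note: growth inhibition of NCI-H1522 cells, read out with a cell viability assay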
# Description: SANGER: Inhibition of human NCI-H1522 cell growth in a cell viability assay.
# [5] = test system: RD; assay: cells; format: functional, cell-based; conditions: Homo sapiens
# Description: SANGER: Inhibition of human RD cell growth in a cell viability assay.
# [6] = test system: NCI-H1417; assay: cells; format: functional, cell-based; conditions: Homo sapiens;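 note: human NCI-H1417 cells, growth inhibition determined with a cell viability readout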
# Description: SANGER: Inhibition of human NCI-H1417 cell growth in a cell viability assay.
# [7] = test system: HTC-C3; assay: cells; format: functional, cell-based; conditions: Homo sapiens;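 note: inhibition of cell growth, read out with a cell viability assay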
# Description: SANGER: Inhibition of human HTC-C3 cell growth in a cell viability assay.
# [8] = test system: HOP-92; assay: cells; format: functional, cell-based; conditions: Homo sapiens;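 note: cell viability readout, with IC50 reflecting inhibition of HOP-92 cell growth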
# Description: SANGER: Inhibition of human HOP-92 cell growth in a cell viability assay.
# [9] = test system: SIG-M5; assay: cells; format: functional, cell-based; conditions: Homo sapiens;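 note: cell viability assay read-out, measuring how strongly growth of cultured human SIG-M5 cells is inhibited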
# Description: SANGER: Inhibition of human SIG-M5 cell growth in a cell viability assay.
# [10] = test system: ARH-77; assay: cells; format: functional, cell-based; conditions: Homo sapiens;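 note: growth inhibition of ARH-77 cells, read out by a cell viability assay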
# Description: SANGER: Inhibition of human ARH-77 cell growth in a cell viability assay.
# [11] = test system: MRK-nu-1; assay: cells; format: functional, cell-based; conditions: Homo sapiens;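 note: cell viability assay measuring growth suppression of human MRK-nu-1 cells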
# Description: SANGER: Inhibition of human MRK-nu-1 cell growth in a cell viability assay.
# [12] = test system: MDA-MB-134-VI; assay: cells; format: functional, cell-based; conditions: Homo sapiens
# Description: SANGER: Inhibition of human MDA-MB-134-VI cell growth in a cell viability assay.
# [13] = test system: NCI-H1755; assay: cells; format: functional, cell-based; conditions: Homo sapiens;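 note: cell viability readout used to measure growth inhibition of NCI-H1755 cells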
# Description: SANGER: Inhibition of human NCI-H1755 cell growth in a cell viability assay.
# [14] = test system: NCI-H1618; assay: cells; format: functional, cell-based; conditions: Homo sapiens;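 note: growth inhibition of human NCI-H1618 cells, measured by a cell viability assay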
# Description: SANGER: Inhibition of human NCI-H1618 cell growth in a cell viability assay.
# [15] = test system: CAL-33; assay: cells; format: functional, cell-based; conditions: Homo sapiens;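 note: growth inhibition of CAL-33 cells, read out with a cell viability assay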
# Description: SANGER: Inhibition of human CAL-33 cell growth in a cell viability assay.
# [16] = test system: HT-29; assay: cells; format: functional, cell-based; conditions: Homo sapiens;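 note: growth inhibition of human HT-29 cells, read out by a cell viability assay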
# Description: SANGER: Inhibition of human HT-29 cell growth in a cell viability assay.
# [17] = test system: TCC-SUP; assay: cells; format: functional, cell-based; conditions: Homo sapiens;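 note: growth inhibition of TCC-SUP cells, read out with a cell viability assay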
# Description: SANGER: Inhibition of human TCCSUP cell growth in a cell viability assay.
# [18] = test system: HCC1419; assay: cells; format: functional, cell-based; conditions: Homo sapiens;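 note: growth inhibition of human HCC1419 cells, read out as cell viability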
# Description: SANGER: Inhibition of human HCC1419 cell growth in a cell viability assay.
# [19] = test system: BL-41; assay: cells; format: functional, cell-based; conditions: Homo sapiens;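 note: growth inhibition of human BL-41 cells, read out with a cell viability assay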
# Description: SANGER: Inhibition of human BL-41 cell growth in a cell viability assay.
# [20] = test system: SNU-387; assay: cells; format: functional, cell-based; conditions: Homo sapiens
# Description: SANGER: Inhibition of human SNU-387 cell growth in a cell viability assay.
# [21] = test system: SW-620; assay: cells; format: functional, cell-based; conditions: Homo sapiens;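 note: growth inhibition of human SW-620 cells, measured by a cell viability assay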
# Description: SANGER: Inhibition of human SW620 cell growth in a cell viability assay.
# [22] = test system: SW1417; assay: cells; format: functional, cell-based; conditions: Homo sapiens;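 note: growth inhibition of human SW1417 cells, read out with a cell viability assay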
# Description: SANGER: Inhibition of human SW1417 cell growth in a cell viability assay.
# [23] = test system: HCC2157; assay: cells; format: functional, cell-based; conditions: Homo sapiens;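 note: growth inhibition of the cancer cell line, read out as cell viability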
# Description: SANGER: Inhibition of human HCC2157 cell growth in a cell viability assay.
# [24] = test system: NCI-H1882; assay: cells; format: functional, cell-based; conditions: Homo sapiens;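 note: growth inhibition of the cell line, determined with a viability assay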
# Description: SANGER: Inhibition of human NCI-H1882 cell growth in a cell viability assay.
# [25] = test system: GMS-10; assay: cells; format: functional, cell-based; conditions: Homo sapiens;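 note: growth inhibition of GMS-10 cells, read out as cell viability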
# Description: SANGER: Inhibition of human GMS-10 cell growth in a cell viability assay.
# [26] = test system: A 172; assay: cells; format: functional, cell-based; conditions: Homo sapiens;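 note: growth inhibition of A172 cells, measured with a cell viability readout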
# Description: SANGER: Inhibition of human A172 cell growth in a cell viability assay.
# [27] = test system: P31-FUJ; assay: cells; format: functional, cell-based; conditions: Homo sapiens;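 note: growth inhibition of P31-FUJ cells, read out with a viability assay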
# Description: SANGER: Inhibition of human P31-FUJ cell growth in a cell viability assay.
# [28] = test system: NCI-H2141; assay: cells; format: functional, cell-based; conditions: Homo sapiens;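 note: growth inhibition of human NCI-H2141 cells, read out with a cell viability assay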
# Description: SANGER: Inhibition of human NCI-H2141 cell growth in a cell viability assay.
# [29] = test system: NCI-H650; assay: cells; format: functional, cell-based; conditions: Homo sapiens;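 note: growth inhibition of NCI-H650 cells, read out by a viability assay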
# Description: SANGER: Inhibition of human NCI-H650 cell growth in a cell viability assay.
# [30] = test system: KOSC-2; assay: cells; format: functional, cell-based; conditions: Homo sapiens;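 note: growth inhibition of KOSC-2 cells, read out by a cell viability assay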
# Description: SANGER: Inhibition of human KOSC-2 cell growth in a cell viability assay.
# [31] = test system: SK-MEL-30; assay: cells; format: functional, cell-based; conditions: Homo sapiens;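 note: growth inhibition of SK-MEL-30 cells, determined with a cell viability assay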
# Description: SANGER: Inhibition of human SK-MEL-30 cell growth in a cell viability assay.
# [32] = test system: SW1573; assay: cells; format: functional, cell-based; conditions: Homo sapiens;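 note: growth inhibition of SW1573 cells, read out with a cell viability assay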
# Description: SANGER: Inhibition of human SW1573 cell growth in a cell viability assay.
# [33] = test system: NCI-H187; assay: cells; format: functional, cell-based; conditions: Homo sapiens;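 note: growth inhibition of NCI-H187 cells, read out as cell viability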
# Description: SANGER: Inhibition of human NCI-H187 cell growth in a cell viability assay.
# [34] = test system: HN; assay: cells; format: functional, cell-based; conditions: Homo sapiens
# Description: SANGER: Inhibition of human HN cell growth in a cell viability assay.
# [35] = test system: DU-145; assay: cells; format: functional, cell-based; conditions: Homo sapiens
# Description: SANGER: Inhibition of human DU-145 cell growth in a cell viability assay.
# [36] = test system: NCI-H596; assay: cells; format: functional, cell-based; conditions: Homo sapiens;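 note: growth inhibition of NCI-H596 cells, read out with a cell viability assay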
# Description: SANGER: Inhibition of human NCI-H596 cell growth in a cell viability assay.
# [37] = test system: IGR-1; assay: cells; format: functional, cell-based; conditions: Homo sapiens;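 note: growth inhibition of human IGR-1 cells, read out with a cell viability assay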
# Description: SANGER: Inhibition of human IGR-1 cell growth in a cell viability assay.
# [38] = test system: SNU-423; assay: cells; format: functional, cell-based; conditions: Homo sapiens
# Description: SANGER: Inhibition of human SNU-423 cell growth in a cell viability assay.
# [39] = test system: NCI-H1734; assay: cells; format: functional, cell-based; conditions: Homo sapiens;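 note: growth inhibition of human NCI-H1734 cells, read out with a cell viability assay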
# Description: SANGER: Inhibition of human NCI-H1734 cell growth in a cell viability assay.
# [40] = test system: EVSA-T; assay: cells; format: functional, cell-based; conditions: Homo sapiens;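 note: growth inhibition of EVSA-T cells, read out with a cell viability assay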
# Description: SANGER: Inhibition of human EVSA-T cell growth in a cell viability assay.
# [41] = test system: G-401; assay: cells; format: functional, cell-based; conditions: Homo sapiens
# Description: SANGER: Inhibition of human G-401 cell growth in a cell viability assay.
# [42] = test system: NCI-H2405; assay: cells; format: functional, cell-based; conditions: Homo sapiens;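 note: growth inhibition of the human cell line, read out with a cell viability assay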
# Description: SANGER: Inhibition of human NCI-H2405 cell growth in a cell viability assay.
# [43] = test system: MIA PaCa-2; assay: cells; format: functional, cell-based; conditions: Homo sapiens;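 note: growth inhibition of MIA PaCa-2 cells, read out with a cell viability assay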
# Description: SANGER: Inhibition of human MIA-PaCa-2 cell growth in a cell viability assay.
# [44] = test system: MDA-MB-415; assay: cells; format: functional, cell-based; conditions: Homo sapiens
# [45] = test system: C3A; assay: cells; format: functional, cell-based; conditions: Homo sapiens;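 note: growth inhibition of C3A human cells, quantified with a cell viability readout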
# Description: SANGER: Inhibition of human C3A cell growth in a cell viability assay.
# [46] = test system: HuCCT-1; assay: cells; format: functional, cell-based, HuCCT1; conditions: Homo sapiens;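 note: growth inhibition of HuCCT-1 cells, read out by a cell viability assay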
# Description: SANGER: Inhibition of human HuCCT1 cell growth in a cell viability assay.
# [47] = test system: C-33-A; assay: cells; format: functional, cell-based; conditions: Homo sapiens;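 note: cell viability assay measuring growth inhibition of C-33-A cells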
# Description: SANGER: Inhibition of human C-33-A cell growth in a cell viability assay.
# [48] = test system: SW1088; assay: cells; format: functional, cell-based; conditions: Homo sapiens;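 note: growth inhibition of human SW1088 cells, read out by a cell viability assay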
# Description: SANGER: Inhibition of human SW1088 cell growth in a cell viability assay.
# [49] = test system: CAL-62; assay: cells; format: functional, cell-based; conditions: Homo sapiens;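 note: growth inhibition of CAL-62 cells, read out with a cell viability assay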
# Description: SANGER: Inhibition of human CAL-62 cell growth in a cell viability assay.
# [50] = test system: TALL-1; assay: cells; format: functional, cell-based; conditions: Homo sapiens;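 note: growth inhibition of cultured human TALL-1 cells, read out by a cell viability assay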
# Description: SANGER: Inhibition of human TALL-1 cell growth in a cell viability assay.
# [51] = test system: CPC-N; assay: cells; format: functional, cell-based; conditions: Homo sapiens;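 note: growth inhibition of CPC-N cells, with a cell viability assay as the readout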
# Description: SANGER: Inhibition of human CPC-N cell growth in a cell viability assay.
# [52] = test system: J82; assay: cells; format: functional, cell-based; conditions: Homo sapiens;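 note: growth inhibition of J82 cells, read out with a cell viability assay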
# Description: SANGER: Inhibition of human J82 cell growth in a cell viability assay.
# [53] = test system: ME-180; assay: cells; format: functional, cell-based; conditions: Homo sapiens;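 note: cell viability assay measuring growth inhibition of ME-180 cells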
# Description: SANGER: Inhibition of human ME-180 cell growth in a cell viability assay.
# [54] = test system: CAL-54; assay: cells; format: functional, cell-based; conditions: Homo sapiens;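 note: growth inhibition of CAL-54 cells, read out by a viability measurement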
# Description: SANGER: Inhibition of human CAL-54 cell growth in a cell viability assay.
# [55] = test system: DOK; assay: cells; format: functional, cell-based; conditions: Homo sapiens;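 note: cell viability assay read-out, values reflect inhibition of cell growth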
# Description: SANGER: Inhibition of human DOK cell growth in a cell viability assay.
# [56] = test system: HT55; assay: cells; format: functional, cell-based; conditions: Homo sapiens;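 note: cell viability readout measuring growth inhibition of human HT55 cells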
# Description: SANGER: Inhibition of human HT55 cell growth in a cell viability assay.
# [57] = test system: MDA-MB-468; assay: cells; format: functional, cell-based; conditions: Homo sapiens
# Description: SANGER: Inhibition of human MDA-MB-468 cell growth in a cell viability assay.
# [58] = test system: MEL-JUSO; assay: cells; format: functional, cell-based; conditions: Homo sapiens;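 note: growth inhibition of human MEL-JUSO cells, read out with a cell viability assay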
# Description: SANGER: Inhibition of human MEL-JUSO cell growth in a cell viability assay.
# [59] = test system: CAKI-1; assay: cells; format: functional, cell-based; conditions: Homo sapiens;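 note: growth inhibition of CAKI-1 cells, measured by a cell viability assay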
# Description: SANGER: Inhibition of human CAKI-1 cell growth in a cell viability assay.
# [60] = test system: SK-HEP1; assay: cells; format: functional, cell-based, SK-HEP-1; conditions: Homo sapiens;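 note: cell viability readout used to quantify reduction in proliferation of human SK-HEP-1 cells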
# Description: SANGER: Inhibition of human SK-HEP-1 cell growth in a cell viability assay.
# [61] = test system: NCI-H1792; assay: cells; format: functional, cell-based; conditions: Homo sapiens;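 note: growth inhibition of human NCI-H1792 cells, read out as cell viability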
# Description: SANGER: Inhibition of human NCI-H1792 cell growth in a cell viability assay.
smiles,measurement,setting,value
CO[C@@]12[C@H](COC(N)=O)C3=C(C(=O)C(C)=C(N)C3=O)N1C[C@@H]1N[C@@H]12 [MITOMYCIN],IC50,[1],< 62.5 nM
same,IC50,[2],178 nM
same,IC50,[3],211 nM
same,IC50,[4],3240 nM
same,IC50,[5],1900 nM
same,IC50,[6],237 nM
same,IC50,[7],5790 nM
same,IC50,[8],1940 nM
same,IC50,[9],< 62.5 nM
same,IC50,[10],243 nM
same,IC50,[11],110 nM
same,IC50,[12],2160 nM
same,IC50,[13],5440 nM
same,IC50,[14],118 nM
same,IC50,[15],537 nM
same,IC50,[16],36 nM
same,IC50,[17],482 nM
same,IC50,[18],3480 nM
same,IC50,[19],295 nM
same,IC50,[20],2930 nM
same,IC50,[21],39.8 nM
same,IC50,[22],1010 nM
same,IC50,[23],727 nM
same,IC50,[24],257 nM
same,IC50,[25],3840 nM
same,IC50,[26],538 nM
same,IC50,[27],3460 nM
same,IC50,[28],853 nM
same,IC50,[29],344 nM
same,IC50,[30],1530 nM
same,IC50,[31],474 nM
same,IC50,[32],145 nM
same,IC50,[33],708 nM
same,IC50,[34],783 nM
same,IC50,[35],< 62.5 nM
same,IC50,[36],1540 nM
same,IC50,[37],322 nM
same,IC50,[38],1520 nM
same,IC50,[39],137 nM
same,IC50,[40],1570 nM
same,IC50,[41],634 nM
same,IC50,[42],294 nM
same,IC50,[43],275 nM
same,IC50,[44],724 nM
same,IC50,[45],194 nM
same,IC50,[46],904 nM
same,IC50,[47],487 nM
same,IC50,[48],4670 nM
same,IC50,[49],242 nM
same,IC50,[50],2400 nM
same,IC50,[51],381 nM
same,IC50,[52],< 62.5 nM
same,IC50,[53],40.1 nM
same,IC50,[54],1840 nM
same,IC50,[55],5160 nM
same,IC50,[56],1950 nM
same,IC50,[57],345 nM
same,IC50,[58],51.3 nM
same,IC50,[59],23.3 nM
same,IC50,[60],646 nM
same,IC50,[61],697 nM
C/C=C(/C)C(=O)O[C@H]1C(C)=C2[C@H]([C@@H]1OC(=O)CCCCCCC)[C@@](C)(OC(C)=O)C[C@H](OC(=O)CCC)[C@@]1(O)[C@H]2OC(=O)[C@@]1(C)O [THAPSIGARGIN],IC50,[1],> 512 nM
same,IC50,[2],4.22 nM
same,IC50,[3],4.05 nM
same,IC50,[4],> 512 nM
same,IC50,[5],7.35 nM
same,IC50,[6],> 512 nM
same,IC50,[7],21.7 nM
same,IC50,[8],5.26 nM
same,IC50,[9],< 2 nM
same,IC50,[10],75.1 nM
same,IC50,[11],23.2 nM
same,IC50,[12],> 512 nM
same,IC50,[13],310 nM
same,IC50,[14],10.1 nM
same,IC50,[15],30.7 nM
same,IC50,[16],5.4 nM
same,IC50,[17],51.6 nM
same,IC50,[18],> 512 nM
same,IC50,[19],< 2 nM
same,IC50,[20],2.2 nM
same,IC50,[21],3.02 nM
same,IC50,[22],335 nM
same,IC50,[23],3.49 nM
same,IC50,[24],> 512 nM
same,IC50,[25],> 512 nM
same,IC50,[26],< 2 nM
same,IC50,[27],72.1 nM
same,IC50,[28],85 nM
same,IC50,[29],296 nM
same,IC50,[30],425 nM
same,IC50,[31],3.24 nM
same,IC50,[32],31.1 nM
same,IC50,[33],53.2 nM
same,IC50,[34],> 512 nM
same,IC50,[35],8.63 nM
same,IC50,[36],38.9 nM
same,IC50,[37],10.5 nM
same,IC50,[38],< 2 nM
same,IC50,[39],1.48 nM
same,IC50,[40],122 nM
same,IC50,[41],25.1 nM
same,IC50,[42],1.14 nM
same,IC50,[43],3.3 nM
same,IC50,[44],> 512 nM
same,IC50,[45],30.3 nM
same,IC50,[46],4.33 nM
same,IC50,[47],9.77 nM
same,IC50,[48],324 nM
same,IC50,[49],71.6 nM
same,IC50,[50],21.7 nM
same,IC50,[51],10 nM
same,IC50,[52],7.91 nM
same,IC50,[53],> 512 nM
same,IC50,[54],> 512 nM
same,IC50,[55],> 512 nM
same,IC50,[56],> 512 nM
same,IC50,[57],3.98 nM
same,IC50,[58],< 2 nM
same,IC50,[59],83.4 nM
same,IC50,[60],7.8 nM
same,IC50,[61],0.526 nM
